Reference: ChEMBL document CHEMBL5108009, “Positron Emission Tomography (PET) Imaging Tracers for Serotonin Receptors” (J Med Chem, 2022)

What was measured:
[1] = Biodistribution in rat assessed as drug uptake measured as percentage of injected dose per gram of tissue relative to control; type: ADME, organism-based; settings: in vivo
[2] = Drug biodistribution in rat brain incubated for 30 mins by autoradiographic analysis; type: ADME, organism-based; settings: in vivo, 0.5 h
[3] = biological target: T1, 5-hydroxytryptamine receptor 7 (Homo sapiens, UniProt P34969); assay: Binding affinity to human 5-HT7 receptor expressed in HEK293 cells incubated for 1 hr by 96 microwell plate; type: cell-based; settings: filed as agonist
[4] = biological target: Serotonin 3 (5-HT3) receptor
Description: Inhibition of 5HT3 receptor (unknown origin)

[5] = Ratio of drug uptake in baboon cingulate cortex to cerebellum; type: ADME, tissue-based, Papio; settings: in vivo
[6] = Ratio of drug uptake in baboon insula to cerebellum; type: ADME, tissue-based, Papio; settings: in vivo
[7] = Ratio of drug uptake in baboon hippocampus to cerebellum; type: ADME, tissue-based, Papio; settings: in vivo
[8] = Drug metabolism in monkey plasma assessed as unchanged compound at 120 mins postinjection relative to control; type: ADME, organism-based, Macaca mulatta; settings: rhesus monkey, read-out: Stability
[9] = Ratio of drug uptake in Rhesus monkey temporal cortex to cerebellum; type: ADME, tissue-based, Macaca mulatta; settings: in vivo
[10] = Ratio of drug uptake in Rhesus monkey raphe to cerebellum; type: ADME, tissue-based, Macaca mulatta; settings: in vivo
[11] = Ratio of drug uptake in Rhesus monkey frontal cortex to cerebellum; type: ADME, tissue-based, Macaca mulatta, Brain frontal cortex/cerebellum; settings: in vivo
[12] = Drug metabolism in Rhesus monkey plasma assessed as unmetabolized compound after 3 hrs by TLC analysis; type: ADME, cell-free, Macaca mulatta; settings: read-out: Stability
[13] = biological target: 5-hydroxytryptamine receptor 2A (Rattus norvegicus, UniProt P14842); assay: Binding affinity to Wistar rat cortex membrane homogenate 5-HT2A receptor incubated for 90 mins by liquid scintillation counter analysis; type: cell membranes
[14] = biological target: T1, 5-hydroxytryptamine receptor 7; assay: Binding affinity to human recombinant 5-HT7 receptor assessed as inhibition constant
[15] = Drug uptake in plasma (unknown origin) as parent compound by measuring radioactivity at 30 mins postinjection relative to control; type: ADME, organism-based; settings: in vivo, 0.5 h
[16] = biological target: T2, 5-hydroxytryptamine receptor 1A (Homo sapiens, UniProt P08908)
T2 sequence (P08908 whole entry): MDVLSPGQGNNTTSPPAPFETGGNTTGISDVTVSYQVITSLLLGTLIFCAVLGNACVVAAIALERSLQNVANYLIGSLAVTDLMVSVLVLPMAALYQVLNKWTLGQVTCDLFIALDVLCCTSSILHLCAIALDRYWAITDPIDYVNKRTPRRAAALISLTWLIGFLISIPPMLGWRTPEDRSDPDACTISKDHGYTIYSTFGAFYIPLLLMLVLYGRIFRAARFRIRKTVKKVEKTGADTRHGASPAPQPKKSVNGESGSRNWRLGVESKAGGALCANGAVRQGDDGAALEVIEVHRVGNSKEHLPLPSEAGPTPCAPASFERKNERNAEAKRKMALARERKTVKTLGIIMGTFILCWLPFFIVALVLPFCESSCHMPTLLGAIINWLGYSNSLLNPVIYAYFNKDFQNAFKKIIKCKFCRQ

[17] = Ratio of drug distribution in rat hippocampus to cerebellum at 30 mins postinjection; type: ADME, organism-based; settings: in vivo, 0.5 h
[18] = Drug uptake in cynomolgus monkey brain treated with WAY-100635 followed by compound 878 Ci/mmol, iv measured at 2.5 mins postinjection by PET imaging relative to control; type: ADME, organism-based, Macaca fascicularis; settings: in vivo
[19] = biological target: T2, 5-hydroxytryptamine receptor 1A; remark: listed apart in the source
[20] = Displacement of [3H]-8-OH-DPAT from bovine hippocampal tissue 5HT1A receptor by competitive binding assay; type: tissue-based, Bos taurus, Hippocampus
[21] = biological target: 5-hydroxytryptamine receptor 1D (Homo sapiens, UniProt P28221); assay: Binding affinity to 5-HT1D receptor (unknown origin) assessed as inhibition constant
[22] = biological target: 5-hydroxytryptamine receptor 2B (Homo sapiens, UniProt P41595); assay: Binding affinity to 5-HT2B receptor (unknown origin) assessed as inhibition constant
[23] = biological target: 5-hydroxytryptamine receptor 7 (Rattus norvegicus, UniProt P32305); assay: Binding affinity to rat 5-HT7 receptor assessed as inhibition constant
[24] = Ratio of drug uptake in cynomolgus monkey cingulate gyrus to cerebellum measured at 87.5 mins postinjection; type: ADME, organism-based, Macaca fascicularis; settings: in vivo, 1.458 h
[25] = plasma, 10 min
Description: Drug metabolism in plasma (unknown origin) assessed as parent compound remaining by measuring total radioactivity at 10 mins by HPLC analysis

[26] = biological target: 5-hydroxytryptamine receptor 2A (Homo sapiens, UniProt P28223); assay: Binding affinity to human 5-HT2A transfected in human tsA201 cells assessed as inhibition constant incubated for 2 hrs by scintillation counter analysis; type: cell-based
5-hydroxytryptamine receptor 2A (Homo sapiens, UniProt P28223), sequence (P28223 whole entry): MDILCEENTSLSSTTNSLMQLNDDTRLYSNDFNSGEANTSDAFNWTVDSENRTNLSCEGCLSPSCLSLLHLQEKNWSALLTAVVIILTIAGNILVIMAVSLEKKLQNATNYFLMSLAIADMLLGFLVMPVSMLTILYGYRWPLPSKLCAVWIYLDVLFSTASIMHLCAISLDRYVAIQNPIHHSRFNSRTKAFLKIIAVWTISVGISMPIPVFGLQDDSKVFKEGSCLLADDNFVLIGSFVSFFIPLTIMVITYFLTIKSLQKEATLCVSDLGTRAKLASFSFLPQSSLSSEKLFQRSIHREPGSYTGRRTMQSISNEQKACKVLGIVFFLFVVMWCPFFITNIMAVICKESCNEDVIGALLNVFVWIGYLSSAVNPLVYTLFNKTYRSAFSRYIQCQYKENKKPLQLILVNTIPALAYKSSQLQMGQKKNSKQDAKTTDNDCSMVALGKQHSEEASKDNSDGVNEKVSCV

T1 sequence (P34969 whole entry): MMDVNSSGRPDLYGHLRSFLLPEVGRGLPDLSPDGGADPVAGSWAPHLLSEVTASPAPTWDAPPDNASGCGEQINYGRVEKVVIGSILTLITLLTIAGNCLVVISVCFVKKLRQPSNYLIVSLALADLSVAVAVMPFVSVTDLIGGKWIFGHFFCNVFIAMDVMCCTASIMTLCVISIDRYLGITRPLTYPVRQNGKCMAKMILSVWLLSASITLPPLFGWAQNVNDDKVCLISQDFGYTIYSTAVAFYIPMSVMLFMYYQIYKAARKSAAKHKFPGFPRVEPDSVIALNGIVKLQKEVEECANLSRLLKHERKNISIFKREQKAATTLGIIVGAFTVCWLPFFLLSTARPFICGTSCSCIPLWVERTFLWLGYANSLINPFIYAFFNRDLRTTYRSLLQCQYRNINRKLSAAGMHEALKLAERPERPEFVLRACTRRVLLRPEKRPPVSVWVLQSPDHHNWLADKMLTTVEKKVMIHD
5-hydroxytryptamine receptor 7 (Rattus norvegicus, UniProt P32305), sequence (P32305 whole entry): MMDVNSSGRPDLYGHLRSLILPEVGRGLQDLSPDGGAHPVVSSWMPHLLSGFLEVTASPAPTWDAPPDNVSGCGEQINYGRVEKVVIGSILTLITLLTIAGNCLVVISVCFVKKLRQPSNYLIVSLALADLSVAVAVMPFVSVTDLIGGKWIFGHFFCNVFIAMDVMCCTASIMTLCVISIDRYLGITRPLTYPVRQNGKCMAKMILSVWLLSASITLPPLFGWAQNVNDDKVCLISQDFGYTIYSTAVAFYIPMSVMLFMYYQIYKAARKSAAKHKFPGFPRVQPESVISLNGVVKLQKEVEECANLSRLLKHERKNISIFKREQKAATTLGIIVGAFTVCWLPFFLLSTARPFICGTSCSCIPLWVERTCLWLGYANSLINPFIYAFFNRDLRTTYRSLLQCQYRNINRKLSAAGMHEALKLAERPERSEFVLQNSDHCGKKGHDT
5-hydroxytryptamine receptor 1D, sequence (P28221 whole entry): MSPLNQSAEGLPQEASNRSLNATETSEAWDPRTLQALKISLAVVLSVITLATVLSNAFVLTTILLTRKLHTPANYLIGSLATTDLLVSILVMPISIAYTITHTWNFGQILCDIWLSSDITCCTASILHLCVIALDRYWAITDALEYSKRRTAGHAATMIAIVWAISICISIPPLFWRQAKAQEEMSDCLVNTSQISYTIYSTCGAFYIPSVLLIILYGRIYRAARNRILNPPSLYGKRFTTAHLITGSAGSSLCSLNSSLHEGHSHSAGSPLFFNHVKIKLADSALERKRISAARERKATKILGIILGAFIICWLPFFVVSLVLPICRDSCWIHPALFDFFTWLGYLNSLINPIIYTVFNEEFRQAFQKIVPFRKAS
5-hydroxytryptamine receptor 2B, sequence (P41595 whole entry): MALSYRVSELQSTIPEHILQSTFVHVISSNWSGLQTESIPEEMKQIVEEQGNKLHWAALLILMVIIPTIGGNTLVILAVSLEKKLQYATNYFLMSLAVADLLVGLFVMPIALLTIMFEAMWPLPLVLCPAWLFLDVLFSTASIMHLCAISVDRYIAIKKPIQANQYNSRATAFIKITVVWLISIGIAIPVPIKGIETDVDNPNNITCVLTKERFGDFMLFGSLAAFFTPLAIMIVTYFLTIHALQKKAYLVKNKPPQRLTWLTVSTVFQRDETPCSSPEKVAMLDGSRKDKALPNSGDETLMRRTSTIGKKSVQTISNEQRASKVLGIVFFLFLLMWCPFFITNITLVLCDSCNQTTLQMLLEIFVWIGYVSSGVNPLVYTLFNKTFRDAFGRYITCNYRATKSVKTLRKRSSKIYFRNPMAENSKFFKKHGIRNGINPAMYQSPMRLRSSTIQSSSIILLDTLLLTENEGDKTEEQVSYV
5-hydroxytryptamine receptor 2A (Rattus norvegicus, UniProt P14842), sequence (P14842 whole entry): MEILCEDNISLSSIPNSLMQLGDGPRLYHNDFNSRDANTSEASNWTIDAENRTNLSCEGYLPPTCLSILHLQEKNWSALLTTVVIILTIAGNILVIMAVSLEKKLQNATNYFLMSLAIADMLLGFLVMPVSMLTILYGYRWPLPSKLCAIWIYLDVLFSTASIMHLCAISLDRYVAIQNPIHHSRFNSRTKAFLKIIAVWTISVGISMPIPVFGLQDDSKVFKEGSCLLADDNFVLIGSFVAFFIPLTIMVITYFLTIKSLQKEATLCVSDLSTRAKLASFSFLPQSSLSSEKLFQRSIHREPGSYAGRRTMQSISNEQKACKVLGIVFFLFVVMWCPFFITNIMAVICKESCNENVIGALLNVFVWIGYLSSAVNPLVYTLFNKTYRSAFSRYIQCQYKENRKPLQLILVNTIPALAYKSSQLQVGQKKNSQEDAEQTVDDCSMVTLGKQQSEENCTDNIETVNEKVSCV

COc1ccccc1N1CCN(CCCCn2ccnc2S[11CH3])CC1
Drug uptake [1]: 1.14 % ID/g

O=S(=O)(c1ccc([18F])cc1)C1CCN(CCc2ccc(F)cc2F)CC1
Drug uptake [2]: > 80%

CCn1cncc1-c1c[nH]c2ccc(OC)cc12
K [3]: 30 nM

COc1cn2cccc2c(N2CCN(Cc3ccc(F)cc3)CC2)n1
IC50 [4]: 6.6 nM

Cn1c(=O)cnn(CCCCN2CCN(c3ccccc3O[11CH3])CC2)c1=O
Ratio [5]: > 4.7 | Ratio [6]: > 4.7 | Ratio [7]: > 4.7

CN1CCN(c2cc(F)cc3c(=O)cc(C(=O)Nc4ccc(N5CCOCC5)c([18F])c4)oc23)CC1
remaining at 2 h [8]: > 40%

[O-][S+](c1ccc([18F])cc1)C1CCN(CCc2ccc(F)cc2F)CC1 (centres undefined)
Drug uptake [2]: 30%

COc1ccccc1N1CCN(CCN(C(=O)C2CCC(C[18F])CC2)c2ccccn2)CC1 (centres undefined)
Ratio [9]: 10 | Ratio [10]: 3.3 | Ratio [11]: 9 | remaining at 3 h [12]: 30%

[O-][S+](c1ccc(F)cc1)C1CCN(CCc2ccc(F)cc2F)CC1 (centres undefined)
Ki [13]: 198 nM

COc1cccc(N2CCN(CCCCC3C(=O)Nc4ccccc43)CC2)c1 (centres undefined)
Ki [14]: 2.6 nM

COc1ccccc1N1CCN(CCN(C(=O)c2ccc([18F])cc2)c2ccccn2)CC1
Drug uptake [15]: 20% | Kd [16]: 0.34 nM | Ratio [17]: 5.6

CC1(C(=O)N(CCN2CCN(c3ccccc3O[11CH3])CC2)c2ccccn2)CCCCC1
Drug uptake [18]: 3% | Ki [19]: 2.3 nM

[11CH3]O[C@H]1CC[C@@H](C(=O)N(CCN2CCN(c3ccccc3O)CC2)c2ccccn2)CC1
Ki [20]: 24 nM

COc1ccccc1N1CCN(CC[C@@H](C(=O)N2CCCCCC2)c2ccccc2)CC1
Ki [21]: 9.5 nM | Ki [19]: 0.6 nM | Ki [22]: 7.2 nM

CCC1(CCCCN2CCN(c3cccc(OCCF)c3)CC2)C(=O)Nc2ccccc21 (centres undefined)
Ki [23]: 13 nM

[11CH3]Oc1ccccc1N1CCN(CC[C@@H](C(=O)N2CCCCCC2)c2ccccc2)CC1
Ratio [24]: 6.4

O=[11C](C1CCCCC1)N(CCN1CCN(c2ccccc2O)CC1)c1ccccn1
Stability [25]: < 10%

COc1cc(Br)c(OCC[18F])cc1CCNCc1ccccc1OC
Ki [26]: < 1.2 nM

CN1CCN(c2ccc3ccccc3n2)CC1
IC50 [4]: 4.7 nM
